According to US6855687B2 (The Board of Regents The University of Texas System, priority 2000, dated 2005):
Like-named read-outs stand apart in the source and are kept apart here.

Biological target: thrombin receptor
Experiment: Specific binding of 125I thrombin to rat chondrocytes (Scatchard analysis)
Procedure: Primary cultures of rat articular chondrocytes were isolated and prepared for in vitro analysis using established methods (see Kuettner, K E., et.al., J. Cell Biology 93: 743-750, 1982). Briefly, cartilage pieces were dissected from the shoulder of rats and the pieces were digested with trypsin for one hour and with collagenase for three hours in tissue culture medium (DMEM) at 37 C. with stirring. The cells were plated in flasks at high density (50,000 cells/cm sq.) and were culture in DMEM containing antibiotics an ascorbic acid at 37° C. in an atmosphere of 5% CO2.

Kd (Scatchard analysis, 125I thrombin, three separate experiments, read-out: affinity of very high affinity binding sites): 0.1 nM
Kd (summary statement of Example 1, read-out: apparent affinity (3000 sites)): ~0.1 nM
Substance: thrombin
